Data from patent US9073944B2, “Cyclic diaminopyrimidine derivatives” (Merck Patent GmbH, priority 2012, dated 2015).

How the values were obtained:
GCN2 = GCN2 (Homo sapiens, UniProt Q9P2K8); experiment: GCN2 enzyme assay (TR-FRET Lanthascreen, GFP-eIF2alpha substrate); type: biochemical; details: class symbols
Procedure: APCI-MS (atmospheric pressure chemical ionisation-mass spectrometry) (M+H)^+. • Mass spectrometry (MS): EI (electron impact ionisation) M^+ • FAB (fast atom bombardment) (M+H)^+ • ESI (electrospray ionisation) (M+H)^+ • m.p.=melting point • LCMS Method: • Column: ZORBAX SB-C8 30*4.6 mm, 3.5 um • Mobile Phase A: Water+0.03% TFA • Mobile Phase B: ACN+0.05% TFA • Gradient: 5-95% B in 2.5 minutes • Flow: 2.0 mL/min • Wavelength: UV1:220 nm, UV2:254 nm • Mass Scan: 100-900 Da GCN2: Assay Principle & Conditions
This assay can quantificate the activity of the serin kinase GCN2 (general control non-derepressible-2).
This kinase is involved in the stress metabolism of cells. It is activated upon starvation (amino acid depletion). Its natural substrate is eIF2a (eukaryotic initiation factor 2 alpha subunit), a translation factor, which gets activated (phosphorylated) by GCN2 in case of an amino acid bottleneck in the cells. This in turn leads to a halt of the protein synthesis. Inhibition of GCN2 results in stopping this mechanism: The cell can not stop protein production upon “starvation” stress.
The assay is run in two steps: the enzymatic reaction and the detection step. In the first step GCN2 is incubated with 10 μM ATP and 80 nM of the GFP-labelled substrate eIF2alpha at room temperature.
The enzymatic reaction is stopped by addition of EDTA. The amount of phosphorylated eIF2alpha is determined by TR-FRET (Lanthascreen): A complex is formed consisting of antibody and GFP labelled phospho-eIF2a, which allows a FRET upon exitation at 340 nm.
The GCN2-activity is directly proportional to the ratio of fluorescence units at the emission wavelength 520 nm (phosphopeptide-sensitive wavelength=emission of GFP) to the units at 495 nm (reference wavelength=emission of Terbium-chelate).
Final Concentrations in the Enzymatic Reaction

SYK = SYK (Homo sapiens, UniProt P43405); experiment: SYK flash plate assay; type: biochemical; details: class symbols; read-out: IC50 SYK (enzyme assay)
Procedure: The kinase assay is performed either as 384-well Flashplate assay (for e.g. Topcount measurement) or as 384-well Image-Flashplate assay (for LEADseeker measurement). • 2.5 nM SYK, 400 nM Biotin-Aha-Aha-KEDPDYEWPSAKK • and 10 μM ATP (spiked with 0.3 μCi 33P-ATP/well) are incubated in a total volume of 50 μl (60 mM Hepes, 10 mM MgCl2, 1.2 mM Dithiothreitol, 0.02% Brij35, 0.1% BSA, pH 7.5) with or without test compound for 1 hours at 30° C. The reaction is stopped with 25 μl 200 mM EDTA. After 30 Min at 30° C. the liquid is removed and each well washed thrice with 100 μl 0.9% sodium chloride solution. Non-specific reaction is determined in presence of 0.1 μM Staurosporine. Radioactivity is measured with Topcount (when using Flashplates) or with LEADseeker (when using Image-Flashplates) respectively. Results (e.g. IC50-values) are calculated with program tools provided by the IT-department (e.g. Symyx Assay Explorer, Genedata Screener). In vivo Assays CIA

Sequence of GCN2 (Q9P2K8 whole entry, species assumed): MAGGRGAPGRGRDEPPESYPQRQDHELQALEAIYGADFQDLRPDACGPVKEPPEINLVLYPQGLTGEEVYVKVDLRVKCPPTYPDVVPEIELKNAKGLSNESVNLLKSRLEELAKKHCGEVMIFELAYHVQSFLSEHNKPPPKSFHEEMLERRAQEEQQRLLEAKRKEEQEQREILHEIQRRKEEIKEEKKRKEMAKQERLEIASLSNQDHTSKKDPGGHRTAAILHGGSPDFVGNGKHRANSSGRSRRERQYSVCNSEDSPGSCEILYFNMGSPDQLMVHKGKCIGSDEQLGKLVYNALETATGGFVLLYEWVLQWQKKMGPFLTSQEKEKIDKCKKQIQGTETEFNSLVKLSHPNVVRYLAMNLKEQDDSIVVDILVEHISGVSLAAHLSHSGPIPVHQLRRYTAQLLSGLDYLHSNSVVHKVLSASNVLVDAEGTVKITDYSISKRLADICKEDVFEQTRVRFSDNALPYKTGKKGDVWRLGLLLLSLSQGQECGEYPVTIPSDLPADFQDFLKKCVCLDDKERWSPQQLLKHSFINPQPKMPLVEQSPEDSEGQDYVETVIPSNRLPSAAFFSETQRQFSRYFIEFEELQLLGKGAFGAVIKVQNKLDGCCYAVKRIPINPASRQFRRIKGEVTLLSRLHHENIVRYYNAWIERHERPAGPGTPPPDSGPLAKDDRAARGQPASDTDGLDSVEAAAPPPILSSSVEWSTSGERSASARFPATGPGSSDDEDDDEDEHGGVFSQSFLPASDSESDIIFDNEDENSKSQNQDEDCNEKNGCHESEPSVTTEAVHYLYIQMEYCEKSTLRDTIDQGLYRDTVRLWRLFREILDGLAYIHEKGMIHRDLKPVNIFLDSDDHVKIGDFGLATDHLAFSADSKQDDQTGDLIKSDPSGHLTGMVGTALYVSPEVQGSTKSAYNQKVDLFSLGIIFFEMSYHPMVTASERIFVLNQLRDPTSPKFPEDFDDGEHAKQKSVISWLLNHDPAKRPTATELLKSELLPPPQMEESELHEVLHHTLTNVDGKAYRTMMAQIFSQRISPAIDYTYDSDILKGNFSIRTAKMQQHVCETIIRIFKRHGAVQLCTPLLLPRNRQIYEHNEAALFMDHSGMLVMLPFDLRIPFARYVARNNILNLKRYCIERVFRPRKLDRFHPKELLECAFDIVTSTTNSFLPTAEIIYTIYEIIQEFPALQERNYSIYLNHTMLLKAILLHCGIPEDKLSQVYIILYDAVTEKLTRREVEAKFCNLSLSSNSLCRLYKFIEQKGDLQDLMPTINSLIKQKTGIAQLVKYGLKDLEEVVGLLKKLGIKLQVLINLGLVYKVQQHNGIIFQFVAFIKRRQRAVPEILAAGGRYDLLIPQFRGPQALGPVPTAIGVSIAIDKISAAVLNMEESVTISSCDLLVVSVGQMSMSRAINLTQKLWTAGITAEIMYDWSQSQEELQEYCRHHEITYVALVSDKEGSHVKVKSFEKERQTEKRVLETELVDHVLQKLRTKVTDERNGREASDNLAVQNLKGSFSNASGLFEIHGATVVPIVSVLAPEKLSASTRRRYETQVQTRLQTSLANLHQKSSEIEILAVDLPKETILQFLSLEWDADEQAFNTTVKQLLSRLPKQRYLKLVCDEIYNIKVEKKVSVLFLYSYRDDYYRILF

Row | SMILES | IC50 (GCN2) [µM] | IC50 (SYK) [µM]
1 | CC12CCOC(=O)Nc3cccc(c3)Nc3ncc(F)c(n3)Nc3ccc(c(c3)NC1=O)O2 (stereo not drawn) [Compound 6] | – | < 0.3
2 | CC12CCOC(=O)NCc3cccc(c3)Nc3ncc(F)c(n3)Nc3ccc(c(c3)NC1=O)O2 (stereo not drawn) [Compound 9] | – | < 0.3
3 | CC12Oc3ccc(cc3NC1=O)Nc1nc(ncc1F)Nc1cccc(c1)CCNC2=O (stereo not drawn) [Compound 12] | 3 to 50 | 3 to 50
4 | CN1CC(=O)Nc2cccc(c2)Nc2ncc(F)c(n2)Nc2ccc3c(c2)NC(=O)[C@@](C)(O3)C1=O (single isomer, unassigned) [Compound 16] | 3 to 50 | 0.3 to 3
5 | CN1CC(=O)Nc2cccc(c2)Nc2ncc(F)c(n2)Nc2ccc3c(c2)NC(=O)C(C)(O3)C1=O (racemic) [Compound 15] | 0.3 to 3 | < 0.3
6 | CN1CC(=O)Nc2cccc(c2)Nc2ncc(F)c(n2)Nc2ccc3c(c2)NC(=O)[C@](C)(O3)C1=O (single isomer, unassigned) [Compound 17] | 0.3 to 3 | < 0.3

The remaining lines, values ahead:

Row | IC50 (GCN2) [µM] | IC50 (SYK) [µM] | SMILES
7 | 0.3 to 3 | – | CC12Oc3ccc(cc3NC1=O)Nc1nc(ncc1F)Nc1cccc(c1)S(=O)(=O)NCCC(=O)NCCCNC2=O (stereo not drawn) [Compound B18]
8 | – | 0.3 to 3 | CC12Oc3ccc(cc3NC1=O)Nc1nc(ncc1F)Nc1ccc(cc1)OCCCC(=O)NCCCNC2=O (stereo not drawn) [Compound B16]
9 | – | 3 to 50 | CN1CC(=O)N(C)c2cccc(c2)Nc2ncc(F)c(n2)Nc2ccc3c(c2)NC(=O)C(C)(O3)C1=O (stereo not drawn) [Compound B1]
10 | 0.3 to 3 | 3 to 50 | COc1cc2ccc1OCCCCNC(=O)C1(C)Oc3ccc(cc3NC1=O)Nc1nc(ncc1F)N2 (stereo not drawn) [Compound B12]
11 | 3 to 50 | 0.3 to 3 | COc1cc2ccc1OCCCCNC(=O)[C@@H](Cc1ccccc1)NC(=O)[C@]1(C)Oc3ccc(cc3NC1=O)Nc1nc(ncc1F)N2 [Compound B20]
12 | 0.3 to 3 | 0.3 to 3 | COc1cc2cc(c1)C(=O)NCCNC(=O)C1(C)Oc3ccc(cc3NC1=O)Nc1nc(ncc1F)N2 (stereo not drawn) [Compound B23]
13 | – | 0.3 to 3 | COc1ccc2cc1Nc1ncc(F)c(n1)Nc1ccc3c(c1)NC(=O)C(C)(O3)C(=O)NCCNC2=O (stereo not drawn) [Compound B19]
14 | – | 3 to 50 | COc1cc2c3cc1Nc1ncc(F)c(n1)Nc1ccc4c(c1)NC(=O)C(C)(O4)C(=O)NCCN(C)CC(=O)N3CC2 (stereo not drawn) [Compound B7]
15 | 0.3 to 3 | 3 to 50 | COc1cc2ccc1OCCCNC(=O)C1(C)Oc3ccc(cc3NC1=O)Nc1nc(ncc1F)N2 (stereo not drawn) [Compound B11]
16 | – | 3 to 50 | CC12Oc3ccc(cc3NC1=O)Nc1nc(ncc1F)Nc1cccc(c1)NC(=O)N1CCC[C@H]1C(=O)NCCCNC2=O (stereo partly drawn) [Compound B17]
17 | – | 0.3 to 3 | CC12Oc3ccc(cc3NC1=O)Nc1nc(ncc1F)Nc1ccc(cc1)OCCC(=O)NCCCNC2=O (stereo not drawn) [Compound B15]
18 | – | 0.3 to 3 | COc1cc2ccc1OCCNC(=O)[C@H](Cc1ccccc1)NC(=O)[C@]1(C)Oc3ccc(cc3NC1=O)Nc1nc(ncc1F)N2 [Compound B25]
19 | – | < 0.3 | COc1cc2cc(c1)NC(=O)CN(C)C(=O)C1(C)Oc3ccc(cc3NC1=O)Nc1nc(ncc1F)C2 (stereo not drawn) [Compound B2]
